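Compound exposure: 48 hours, 5 concentrations, 96-well plates. The concentration for full growth arrest is given as TGI.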

15 compounds from PubChem BioAssay (NCI) can be followed below.

The test system of one test is SF-268 CNS. In words: growth of human tumour cells (NCI), 48 h.
For the compound `O=C1c2cccc3cccc(c23)C2NCCCN12` (stereo not drawn), the TGI was over 100 µM.
On the same count and under the same terms, the same measure for `CCCCSC1=N/C(=C\c2ccco2)C(Cl)=N1`: over 100 µM; for `c1ccc(NN=C(c2ccccn2)c2ccccn2)nc1`: over 100 µM.
`CC(=O)O[C@H]1CCC2[C@@H]3CCC4Nc5oncc5C[C@]4(C)C3CC[C@@]21C` (stereo partly drawn) registered a TGI of over 10 µM.
The same measure, in the same setting: under `CCOC(=O)c1nc2ccc(C(F)(F)F)cc2[nH]c1=O` stands over 100 µM; under `Cc1cn(C2CC(O)C(CO[Si](C)(C)C(C)(C)C)OC2OC(C)C)c(=O)[nH]c1=O` (stereo not drawn), over 100 µM; under `CNC(=S)N=Nc1c(O)n(CN2CCOCC2)c2ccc([N+](=O)[O-])cc12`, 47.5 µM.
With `COc1ccc(-c2csc(Cc3nc4ccccc4c(=O)n3-c3ccc(Cl)cc3)n2)cc1`, the TGI was over 100 µM.
Same read-out and setting: under `O=C(Nc1nncs1)NS(=O)(=O)n1c(=S)sc2ccccc21` stands over 100 µM.
For `Cc1nc2ccc(NC(=S)Nc3ccccc3)cc2c(=O)n1-c1ccccc1`, the TGI was over 100 µM.
Compound `COc1ccc2[nH]c3c(c2c1)CC(=S)N1CCCC(CC3=O)C1` (stereo not drawn) yielded a TGI of over 100 µM.
On the same count and under the same terms, the same measure for `COC(=O)CC1C=CC(C)(OC)OO1` (stereo not drawn): over 100 µM.
`CCOC(=O)CO/N=C1/C(c2c(O)[nH]c3ccccc23)=Nc2ccccc21` showed a TGI of over 100 µM.

The next test has as its system MDA-N. The test can be described thus: growth of human tumour cells (NCI), 48 h.
`CC(C)CC(NC(=O)C(CI)Cc1ccccc1)C(=O)Nc1ccccc1` (stereo not drawn) gave a TGI of over 100 µM.
Compound `O=C1c2cccc3cccc(c23)C2NCCCN12` (stereo not drawn) displayed a TGI of over 100 µM.
On the same count and under the same terms, under `CCCCSC1=N/C(=C\c2ccco2)C(Cl)=N1` stands over 100 µM.
Consider `c1ccc(NN=C(c2ccccn2)c2ccccn2)nc1`, for which the TGI was over 100 µM.
As for `CC(=O)O[C@H]1CCC2[C@@H]3CCC4Nc5oncc5C[C@]4(C)C3CC[C@@]21C` (stereo partly drawn), the TGI is over 10 µM.
The compound `CCOC(=O)c1nc2ccc(C(F)(F)F)cc2[nH]c1=O` returned a TGI of over 100 µM.
`COC1=CC2C(c3cc4ccccc4n3S(=O)(=O)c3ccccc3)CC1CN2C(=O)OCc1ccccc1` (stereo not drawn) showed a TGI of over 100 µM.
On the same count and under the same terms, the same measure for `Cc1cn(C2CC(O)C(CO[Si](C)(C)C(C)(C)C)OC2OC(C)C)c(=O)[nH]c1=O` (stereo not drawn): over 100 µM.
Still for that read-out and setting: under `CNC(=S)N=Nc1c(O)n(CN2CCOCC2)c2ccc([N+](=O)[O-])cc12` stands over 100 µM.
Still for that read-out and setting: the same measure for `COc1ccc(-c2csc(Cc3nc4ccccc4c(=O)n3-c3ccc(Cl)cc3)n2)cc1`: 59 µM.
The compound `O=C(Nc1nncs1)NS(=O)(=O)n1c(=S)sc2ccccc21` registered a TGI of over 100 µM.
`Cc1nc2ccc(NC(=S)Nc3ccccc3)cc2c(=O)n1-c1ccccc1`: the TGI was over 100 µM.
Still for that read-out and setting: the same measure for `COc1ccc2[nH]c3c(c2c1)CC(=S)N1CCCC(CC3=O)C1` (stereo not drawn): over 100 µM.
On the same count and under the same terms, the same measure for `COC(=O)CC1C=CC(C)(OC)OO1` (stereo not drawn): over 100 µM; for `CCOC(=O)CO/N=C1/C(c2c(O)[nH]c3ccccc23)=Nc2ccccc21`: over 100 µM.

Another test has as its system UACC-62 melanoma. In words: growth of human tumour cells (NCI), 48 h.
Take `CC(C)CC(NC(=O)C(CI)Cc1ccccc1)C(=O)Nc1ccccc1` (stereo not drawn): the TGI is over 100 µM.
On the same count and under the same terms, under `O=C1c2cccc3cccc(c23)C2NCCCN12` (stereo not drawn) stands over 100 µM.
The same measure, in the same setting: the same measure for `CCCCSC1=N/C(=C\c2ccco2)C(Cl)=N1`: over 100 µM; for `CCOC(=O)c1nc2ccc(C(F)(F)F)cc2[nH]c1=O`: over 100 µM; for `COC1=CC2C(c3cc4ccccc4n3S(=O)(=O)c3ccccc3)CC1CN2C(=O)OCc1ccccc1` (stereo not drawn): over 100 µM.
On the same count and under the same terms, under `Cc1cn(C2CC(O)C(CO[Si](C)(C)C(C)(C)C)OC2OC(C)C)c(=O)[nH]c1=O` (stereo not drawn) stands over 100 µM; under `CNC(=S)N=Nc1c(O)n(CN2CCOCC2)c2ccc([N+](=O)[O-])cc12`, 33.3 µM.
`COc1ccc(-c2csc(Cc3nc4ccccc4c(=O)n3-c3ccc(Cl)cc3)n2)cc1`: the TGI worked out at 68.3 µM.
`O=C(Nc1nncs1)NS(=O)(=O)n1c(=S)sc2ccccc21` returned a TGI of over 100 µM.
Still for that read-out and setting: under `Cc1nc2ccc(NC(=S)Nc3ccccc3)cc2c(=O)n1-c1ccccc1` stands over 100 µM; under `COc1ccc2[nH]c3c(c2c1)CC(=S)N1CCCC(CC3=O)C1` (stereo not drawn), over 100 µM.
Still for that read-out and setting: the same measure for `COC(=O)CC1C=CC(C)(OC)OO1` (stereo not drawn): over 100 µM; for `CCOC(=O)CO/N=C1/C(c2c(O)[nH]c3ccccc23)=Nc2ccccc21`: over 100 µM.

Another test deals with MOLT-4 leukemia. The test can be described thus: growth of human tumour cells (NCI), 48 h.
In turn, `CC(C)CC(NC(=O)C(CI)Cc1ccccc1)C(=O)Nc1ccccc1` (stereo not drawn) gave a TGI of over 100 µM.
On the same count and under the same terms, the same measure for `O=C1c2cccc3cccc(c23)C2NCCCN12` (stereo not drawn): over 100 µM; for `CCCCSC1=N/C(=C\c2ccco2)C(Cl)=N1`: over 100 µM.
`CC(=O)O[C@H]1CCC2[C@@H]3CCC4Nc5oncc5C[C@]4(C)C3CC[C@@]21C` (stereo partly drawn) gave a TGI of over 10 µM.
Same read-out and setting: under `CCOC(=O)c1nc2ccc(C(F)(F)F)cc2[nH]c1=O` stands over 100 µM; under `CNC(=S)N=Nc1c(O)n(CN2CCOCC2)c2ccc([N+](=O)[O-])cc12`, over 100 µM.
Compound `COc1ccc(-c2csc(Cc3nc4ccccc4c(=O)n3-c3ccc(Cl)cc3)n2)cc1` gave a TGI of 67.4 µM.
Same read-out and setting: the same measure for `O=C(Nc1nncs1)NS(=O)(=O)n1c(=S)sc2ccccc21`: over 100 µM; for `Cc1nc2ccc(NC(=S)Nc3ccccc3)cc2c(=O)n1-c1ccccc1`: over 100 µM; for `CCOC(=O)CO/N=C1/C(c2c(O)[nH]c3ccccc23)=Nc2ccccc21`: 78.5 µM.

A further test relates to PC-3 prostate. In words: growth of human tumour cells (NCI), 48 h.
Consider `CC(C)CC(NC(=O)C(CI)Cc1ccccc1)C(=O)Nc1ccccc1` (stereo not drawn), for which the TGI was over 100 µM.
`O=C1c2cccc3cccc(c23)C2NCCCN12` (stereo not drawn) displayed a TGI of over 100 µM.
The same measure, in the same setting: the same measure for `CCCCSC1=N/C(=C\c2ccco2)C(Cl)=N1`: over 100 µM; for `c1ccc(NN=C(c2ccccn2)c2ccccn2)nc1`: over 100 µM.
Same read-out and setting: under `CC(=O)O[C@H]1CCC2[C@@H]3CCC4Nc5oncc5C[C@]4(C)C3CC[C@@]21C` (stereo partly drawn) stands over 10 µM; under `CCOC(=O)c1nc2ccc(C(F)(F)F)cc2[nH]c1=O`, over 100 µM; under `COC1=CC2C(c3cc4ccccc4n3S(=O)(=O)c3ccccc3)CC1CN2C(=O)OCc1ccccc1` (stereo not drawn), over 100 µM.
On the same count and under the same terms, under `Cc1cn(C2CC(O)C(CO[Si](C)(C)C(C)(C)C)OC2OC(C)C)c(=O)[nH]c1=O` (stereo not drawn) stands over 100 µM; under `CNC(=S)N=Nc1c(O)n(CN2CCOCC2)c2ccc([N+](=O)[O-])cc12`, 57.5 µM.
Turning to `COc1ccc(-c2csc(Cc3nc4ccccc4c(=O)n3-c3ccc(Cl)cc3)n2)cc1`, the TGI was over 100 µM.
Regarding `O=C(Nc1nncs1)NS(=O)(=O)n1c(=S)sc2ccccc21`, the TGI was over 100 µM.
On the same count and under the same terms, under `Cc1nc2ccc(NC(=S)Nc3ccccc3)cc2c(=O)n1-c1ccccc1` stands over 100 µM.
In turn, `COc1ccc2[nH]c3c(c2c1)CC(=S)N1CCCC(CC3=O)C1` (stereo not drawn) had a TGI of over 100 µM.
Same read-out and setting: under `COC(=O)CC1C=CC(C)(OC)OO1` (stereo not drawn) stands over 100 µM; under `CCOC(=O)CO/N=C1/C(c2c(O)[nH]c3ccccc23)=Nc2ccccc21`, over 100 µM.

In the next test the test system is SNB-75 CNS. The test can be described thus: growth of human tumour cells (NCI), 48 h.
`CC(C)CC(NC(=O)C(CI)Cc1ccccc1)C(=O)Nc1ccccc1` (stereo not drawn) showed a TGI of over 100 µM.
`O=C1c2cccc3cccc(c23)C2NCCCN12` (stereo not drawn) gave a TGI of 89.5 µM.
